Activity calls are given as the source filed them.
Columns and labels:
[1] = target: Melanin-concentrating hormone receptor 1 (Homo sapiens, UniProt Q99705); experiment: Late-stage fluorescence-based counterscreen for antagonists of the G-protein coupled receptor 7 (GPR7): cell-based dose response assay to identify antagonists of the melanin-concentrating hormone receptor 1 (MCHR1) Set 6.; type: functional
[2] = target: T1, Neuropeptides B/W receptor type 1 (Homo sapiens, UniProt P48145); experiment: GPR7 antagonist potency, late-stage follow-up, cell-based, fluorescence, dose response, set 6 (AID 588583); type: functional
T1 sequence (P48145 whole entry): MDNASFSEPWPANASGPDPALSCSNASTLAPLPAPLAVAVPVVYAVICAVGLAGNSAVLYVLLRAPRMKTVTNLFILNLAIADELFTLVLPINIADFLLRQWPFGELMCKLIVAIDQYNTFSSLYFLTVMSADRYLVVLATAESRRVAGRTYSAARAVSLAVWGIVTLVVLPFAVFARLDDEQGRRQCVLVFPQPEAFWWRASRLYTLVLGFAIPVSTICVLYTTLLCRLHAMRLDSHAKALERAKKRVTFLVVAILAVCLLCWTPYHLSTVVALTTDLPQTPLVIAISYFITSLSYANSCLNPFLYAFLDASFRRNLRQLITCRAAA

[3] = target: T2, Endoribonuclease toxin MazF (Escherichia coli K-12, UniProt P0AE70); experiment: MazF toxin RNase activators, dose response, biochemical, fluorescence, single-stranded RNA substrate, uHTS hits (AID 588481); type: functional
T2 sequence (P0AE70 whole entry): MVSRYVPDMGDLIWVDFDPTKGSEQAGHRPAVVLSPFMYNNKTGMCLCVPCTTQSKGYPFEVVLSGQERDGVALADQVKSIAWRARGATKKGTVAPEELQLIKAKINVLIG

[4] = target: T2, Endoribonuclease toxin MazF; experiment: fluorescent RNA oligo signal without MazF, dose response, counter-screen for MazEF activator project, biochemical, fluorescence, single-stranded RNase substrate (AID 588502); type: functional
[5] = target: Dual specificity protein kinase CLK1 (Homo sapiens, UniProt P49759); experiment: CLK1 kinase inhibitors, off-target check, dose response, selectivity assay for Dyrk1A inhibitor project, biochemical, cherry-picked samples (AID 588811)
[6] = target: Dual specificity tyrosine-phosphorylation-regulated kinase 1A (Rattus norvegicus, UniProt Q63470); type: biochemical, Homo sapiens
[7] = inhibitors of firefly luciferase expression or activity, dose response, H4 neuroglioma cells, luminescence (AID 1990); type: functional, cell-based
[8] = Luminescence Cell-Based Dose Response HTS to Identify Inhibitors of 5'UTR Stem-Loop Driven Prion Protein mRNA Translation in H4 Neuroglioblastoma Cells. [Related pubchem assays: 1827 (Project Summary), 1813 (Primary HTS)]; type: functional
[9] = inhibitors of SNCA 5'UTR-driven reporter translation, confirmation, H4 neuroglioma cells, luminescence (AID 1988); type: functional, cell-based
[10] = inhibitors of intracellular T. cruzi replication, confirmation, NIH3T3 host cells, beta-gal luminescence (AID 2044); type: functional, cell-based;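 note: intracellular parasites grown in NIH/3T3 mouse fibroblasts as host cells; luminescent beta-galactosidase reporter signal from transgenic T. cruzi replicating inside host cells; inhibitors lower the luminescence signal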
[11] = cytotoxicity toward NIH3T3 fibroblasts, dose response, counter-screen, cell-based, ATP luminescence, mouse fibroblasts (AID 2010); type: functional;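 note: cells exposed to compound for about 90 hours before reading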
[12] = target: T3, Microphthalmia-associated transcription factor (Homo sapiens, UniProt O75030); experiment: TRPM1 promoter luciferase signal decrease, dose response, MITF inhibitor project, cell-based, SK-MEL-5, cherry-picked, set 3 (AID 493073); type: functional
T3 sequence (O75030 whole entry): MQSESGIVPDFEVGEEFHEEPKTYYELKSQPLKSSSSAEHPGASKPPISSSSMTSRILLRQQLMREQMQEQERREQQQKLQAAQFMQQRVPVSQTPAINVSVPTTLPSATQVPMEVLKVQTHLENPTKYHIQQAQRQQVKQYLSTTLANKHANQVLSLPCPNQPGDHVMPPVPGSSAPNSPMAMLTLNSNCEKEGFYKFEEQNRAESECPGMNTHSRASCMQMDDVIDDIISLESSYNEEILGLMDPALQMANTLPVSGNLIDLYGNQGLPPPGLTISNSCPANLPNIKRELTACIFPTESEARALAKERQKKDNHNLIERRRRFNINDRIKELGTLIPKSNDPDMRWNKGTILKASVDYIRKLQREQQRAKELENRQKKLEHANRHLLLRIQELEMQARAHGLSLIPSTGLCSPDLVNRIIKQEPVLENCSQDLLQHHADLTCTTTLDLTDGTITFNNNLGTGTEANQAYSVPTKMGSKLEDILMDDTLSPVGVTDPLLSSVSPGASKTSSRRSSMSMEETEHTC

[13] = tested on: HEK293; experiment: cytotoxicity in HEK293T NF-kB-Luc cells, SAR follow-up, cytotoxicity control for NF-kB activator project, cell-based, resazurin fluorescence (AID 493251); type: functional; details: Homo sapiens
[14] = tested on: Jurkat; experiment: SAR Analysis of small molecule inhibitors of T-cell specific antigen receptor-induced NF-kB activation in a Jurkat cell line using a luminescence assay - Set 2. [Related pubchem assays (depositor defined):AID435003, AID435012, AID465]; type: functional, cell-based; details: Homo sapiens
[15] = tested on: HEK293; experiment: SAR Analysis of small molecule inhibitors of T-cell specific antigen receptor-induced NF-kB activation in a HEK-293T cell line using a luminescence assay - Set 2. [Related pubchem assays (depositor defined):AID435003, AID435012, AID489026]; type: functional, cell-based; details: Homo sapiens
[16] = target: Beta-2 adrenergic receptor (Homo sapiens, UniProt P07550); experiment: beta2AR agonists driving receptor internalization, dose response, cell-based, FAP fluorogen, flow cytometry, cherry pick 1 (AID 588763); type: functional
[17] = target: Melanocortin receptor 4 (Homo sapiens, UniProt P32245); experiment: MC4R antagonist potency on cAMP, dose response, cell-based, TR-FRET, biased antagonists (AID 602298); type: functional;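 note: antagonist potency against agonist-stimulated cAMP production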
[18] = nonselective inhibitors of cellular cAMP signaling, dose response, counter-screen for MC4R biased antagonist project, cell-based, TR-FRET cAMP detection (AID 602305); type: functional;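 note: U2OS cells stimulated with forskolin near its EC80 as the cAMP inducer; potency is for inhibition of forskolin-stimulated cAMP signaling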
[19] = target: T4, Heat shock factor protein 1 (Mus musculus, UniProt P38532); experiment: inhibition of MG132-induced HSE-luciferase signal, confirmation, cell-based, NIH3T3, luminescence, dose retest (AID 2382); type: functional;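 note: NIH3T3 fibroblasts with HSF1-driven luciferase reporter stressed by proteasome inhibitor MG132; luminescence from HSF1-driven luciferase expression after 8 hours of MG132 stress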
T4 sequence (P38532 whole entry): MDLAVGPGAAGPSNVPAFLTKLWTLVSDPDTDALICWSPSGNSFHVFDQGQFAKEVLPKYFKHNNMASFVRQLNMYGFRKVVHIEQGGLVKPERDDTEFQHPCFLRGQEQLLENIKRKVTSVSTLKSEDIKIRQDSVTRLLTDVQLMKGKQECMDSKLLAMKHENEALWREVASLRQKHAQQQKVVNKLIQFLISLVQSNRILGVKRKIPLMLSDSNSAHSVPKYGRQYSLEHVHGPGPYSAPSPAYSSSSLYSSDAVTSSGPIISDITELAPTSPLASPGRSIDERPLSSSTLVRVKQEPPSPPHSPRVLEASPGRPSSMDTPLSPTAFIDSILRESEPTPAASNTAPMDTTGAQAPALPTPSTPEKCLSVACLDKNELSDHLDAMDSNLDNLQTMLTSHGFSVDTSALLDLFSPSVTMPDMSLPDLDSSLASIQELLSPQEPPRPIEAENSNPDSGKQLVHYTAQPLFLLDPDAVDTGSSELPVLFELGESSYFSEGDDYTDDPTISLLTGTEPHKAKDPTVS

[20] = tested on: HEK293; experiment: inhibitors of LMP1-driven NF-kB reporter, dose response, cell-based, HEK293, luciferase, cherry-pick (AID 588343); type: functional; details: Homo sapiens
[21] = target: DNA dC->dU-editing enzyme APOBEC-3G (Homo sapiens, UniProt Q9HC16); experiment: APOBEC3G deaminase inhibitors, SAR follow-up, biochemical, fluorescence, single-stranded DNA substrate (AID 602136); type: functional; details: read-out: IC50_Mean
[22] = target: DNA dC->dU-editing enzyme APOBEC-3A (Homo sapiens, UniProt P31941); experiment: SAR analysis of small molecule inhibitors of APOBEC3A DNA Deaminase via a fluorescence-based single-stranded DNA deaminase assay.; type: functional; details: read-out: IC50_Mean
Sequence of DNA dC->dU-editing enzyme APOBEC-3A (P31941 whole entry): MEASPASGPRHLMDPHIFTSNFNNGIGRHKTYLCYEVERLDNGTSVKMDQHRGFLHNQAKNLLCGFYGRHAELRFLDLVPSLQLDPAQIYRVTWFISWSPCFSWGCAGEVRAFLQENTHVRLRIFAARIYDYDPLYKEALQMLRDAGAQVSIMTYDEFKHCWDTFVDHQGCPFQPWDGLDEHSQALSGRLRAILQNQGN

Sequence of Beta-2 adrenergic receptor (P07550 whole entry): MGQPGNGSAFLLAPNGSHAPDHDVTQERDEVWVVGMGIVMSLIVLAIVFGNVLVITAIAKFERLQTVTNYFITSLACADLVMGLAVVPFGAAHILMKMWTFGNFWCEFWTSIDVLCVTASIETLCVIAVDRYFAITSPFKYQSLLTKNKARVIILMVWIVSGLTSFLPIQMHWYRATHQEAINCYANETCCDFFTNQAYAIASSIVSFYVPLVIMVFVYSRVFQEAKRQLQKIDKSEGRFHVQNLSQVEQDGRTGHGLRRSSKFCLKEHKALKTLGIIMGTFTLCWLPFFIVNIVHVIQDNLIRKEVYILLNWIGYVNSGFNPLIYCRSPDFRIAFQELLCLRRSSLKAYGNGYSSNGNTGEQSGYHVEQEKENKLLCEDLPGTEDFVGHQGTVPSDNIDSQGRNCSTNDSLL
Sequence of Melanin-concentrating hormone receptor 1 (Q99705 whole entry): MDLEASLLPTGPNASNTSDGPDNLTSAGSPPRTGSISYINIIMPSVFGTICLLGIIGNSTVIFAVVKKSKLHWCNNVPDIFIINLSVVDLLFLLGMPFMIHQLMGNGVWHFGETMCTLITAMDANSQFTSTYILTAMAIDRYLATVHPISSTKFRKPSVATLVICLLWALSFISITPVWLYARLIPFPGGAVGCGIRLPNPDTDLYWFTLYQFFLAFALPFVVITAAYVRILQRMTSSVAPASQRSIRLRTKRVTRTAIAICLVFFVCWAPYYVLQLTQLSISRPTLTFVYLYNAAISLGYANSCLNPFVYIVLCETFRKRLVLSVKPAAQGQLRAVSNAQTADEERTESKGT
Sequence of Dual specificity protein kinase CLK1 (P49759 whole entry): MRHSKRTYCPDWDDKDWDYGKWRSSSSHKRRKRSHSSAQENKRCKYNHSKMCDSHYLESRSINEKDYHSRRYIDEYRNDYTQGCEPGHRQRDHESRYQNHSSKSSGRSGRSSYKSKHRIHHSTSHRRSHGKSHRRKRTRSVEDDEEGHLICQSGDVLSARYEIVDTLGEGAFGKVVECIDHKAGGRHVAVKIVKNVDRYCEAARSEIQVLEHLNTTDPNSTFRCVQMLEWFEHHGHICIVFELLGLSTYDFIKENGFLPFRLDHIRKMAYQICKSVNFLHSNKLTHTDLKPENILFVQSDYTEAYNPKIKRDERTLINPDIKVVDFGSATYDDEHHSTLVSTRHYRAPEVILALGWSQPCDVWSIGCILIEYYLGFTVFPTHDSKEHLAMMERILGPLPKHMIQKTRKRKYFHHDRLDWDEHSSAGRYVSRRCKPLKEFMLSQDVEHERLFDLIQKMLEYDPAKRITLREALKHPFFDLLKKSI
Sequence of DNA dC->dU-editing enzyme APOBEC-3G (Q9HC16 whole entry): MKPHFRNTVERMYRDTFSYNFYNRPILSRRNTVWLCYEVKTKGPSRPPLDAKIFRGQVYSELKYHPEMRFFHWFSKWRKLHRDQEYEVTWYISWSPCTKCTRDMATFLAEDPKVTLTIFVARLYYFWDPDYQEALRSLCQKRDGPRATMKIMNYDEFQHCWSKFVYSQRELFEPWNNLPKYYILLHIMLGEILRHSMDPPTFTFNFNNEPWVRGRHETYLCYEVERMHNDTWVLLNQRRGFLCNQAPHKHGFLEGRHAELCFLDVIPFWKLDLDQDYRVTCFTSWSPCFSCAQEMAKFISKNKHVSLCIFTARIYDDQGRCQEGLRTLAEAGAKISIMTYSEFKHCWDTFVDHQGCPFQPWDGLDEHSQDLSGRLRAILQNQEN
Sequence of Melanocortin receptor 4 (P32245 whole entry): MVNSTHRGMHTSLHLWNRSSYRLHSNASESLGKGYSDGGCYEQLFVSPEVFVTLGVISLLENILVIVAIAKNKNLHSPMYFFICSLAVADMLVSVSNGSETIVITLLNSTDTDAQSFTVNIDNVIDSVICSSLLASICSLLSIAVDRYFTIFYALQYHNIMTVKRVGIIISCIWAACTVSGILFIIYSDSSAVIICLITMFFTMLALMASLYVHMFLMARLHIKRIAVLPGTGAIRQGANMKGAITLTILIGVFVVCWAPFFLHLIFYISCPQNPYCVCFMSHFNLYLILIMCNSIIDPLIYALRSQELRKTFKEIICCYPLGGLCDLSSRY

For `CCOc1ccc(Oc2c(Cl)cnn(Cc3cccc4ccccc34)c2=S)cc1`, which IC50 [1] is on record?
Its IC50 is 1.51 µM (active).

What about the IC50 [2] of the same compound?
Its IC50 is 1.51 µM (active).

With `CN(C)c1ccc(/C=N/N(CCC#N)C2=NS(=O)(=O)c3ccccc32)cc1` as the compound, how does the EC50 [3] read?
Its EC50 is > 99 µM (inactive).

And the EC50 [4]?
Its EC50 is 42.5 µM (inactive).

For `COc1cccc(NC(=O)Nc2ccc3c(c2)N(C)C(=O)CS3)c1`, which AC50 [5] is on record?
Its AC50 is 9.67 µM (active).

What about the AC50 [6] of the same compound?
Its AC50 is 5.3 µM (active).

What does the source list for `CCN1CCN(c2ccc(NC(=O)c3ccc([N+](=O)[O-])o3)cc2Cl)CC1`?
EC50 [7]: > 120 µM (not active); EC50 [8]: > 120 µM (not active); EC50 [9]: 8.46 µM (active); EC50 [10]: > 30 µM (not active); EC50 [11]: 4.34 µM (active); AC50 [12]: 9.54 µM (active); IC50 [13]: 49.2 µM (inactive); IC50 [14]: 15.8 µM (active); IC50 [15]: 16.5 µM (active); EC50 [16]: 6.22 µM (active)

With `Nc1cc(N)nc(SCc2cc([N+](=O)[O-])cc3c2OCOC3)n1` as the compound, how does the EC50 [16] read?
Its EC50 is 1.18 µM (active).

With `O=C(COC(=O)CNS(=O)(=O)c1cccc(Br)c1)Nc1ccccc1Sc1ccccc1` as the compound, how does the IC50 [17] read?
Its IC50 is 8.42 µM (active).

What about the IC50 [18] of the same compound?
The IC50 was > 64.6 µM (inactive).

What does the source list for `Cc1ccc(-n2cc(C(=O)c3ccccc3O)cn2)cc1`?
EC50 [19]: < 0.16 µM (active); AC50 [20]: 0.725 µM (active)

Which IC50 [21] does the source give for `Cn1cccc1/C=C(/C#N)C(=O)Nc1cc(Cl)ccc1N1CCOCC1` here?
Its IC50 is > 99 µM (inactive).

What about the IC50 [22] of the same compound?
Its IC50 is > 99 µM (inactive).

Which results are given for `CC(C)CC(=O)NC(c1ccc(C(C)C)cc1)c1ccc2cccnc2c1O` (stereo unspecified)?
IC50 [13]: 18 µM (active); IC50 [14]: 2.49 µM (active); IC50 [15]: 7.36 µM (active)
